Reference: paper PMC4275348 (Molecular microbiology, 2014)
Residue numbers refer to the chain shown, from its start.

What was measured:
Assay type in all cases: cell-based, Vibrio harveyi
LuxN^H210T = biological target: T1, LuxN^H210T (Vibrio campbellii, UniProt A7MRY4, H210T); assay: Bioluminescence of V. harveyi XK006 carrying luxN H210T; settings: 1 μM AHL
T1 sequence (A7MRY4 1-849 H210T): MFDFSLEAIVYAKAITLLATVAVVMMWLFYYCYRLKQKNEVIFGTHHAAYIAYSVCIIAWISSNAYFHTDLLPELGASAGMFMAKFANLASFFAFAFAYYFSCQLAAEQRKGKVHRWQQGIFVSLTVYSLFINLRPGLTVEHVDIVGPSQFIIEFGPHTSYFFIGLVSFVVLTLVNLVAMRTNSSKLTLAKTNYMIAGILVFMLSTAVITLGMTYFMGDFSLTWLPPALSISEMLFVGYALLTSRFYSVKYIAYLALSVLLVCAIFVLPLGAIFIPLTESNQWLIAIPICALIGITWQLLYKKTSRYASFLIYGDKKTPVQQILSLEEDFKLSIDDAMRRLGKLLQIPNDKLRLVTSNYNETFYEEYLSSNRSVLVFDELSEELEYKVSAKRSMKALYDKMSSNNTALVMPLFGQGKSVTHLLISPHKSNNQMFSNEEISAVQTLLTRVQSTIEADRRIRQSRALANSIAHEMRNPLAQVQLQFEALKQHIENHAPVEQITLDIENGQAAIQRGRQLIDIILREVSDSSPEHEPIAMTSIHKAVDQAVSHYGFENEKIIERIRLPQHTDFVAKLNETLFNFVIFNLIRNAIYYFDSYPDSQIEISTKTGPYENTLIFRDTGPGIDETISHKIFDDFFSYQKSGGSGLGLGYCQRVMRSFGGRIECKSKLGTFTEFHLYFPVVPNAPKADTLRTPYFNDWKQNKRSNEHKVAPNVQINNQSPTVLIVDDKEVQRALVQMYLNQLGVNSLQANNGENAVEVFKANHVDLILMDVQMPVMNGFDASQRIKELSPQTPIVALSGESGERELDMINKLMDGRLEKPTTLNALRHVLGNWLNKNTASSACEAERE

LuxN^H210Q = biological target: T2, LuxN^H210Q (Vibrio campbellii, UniProt A7MRY4, H210Q); assay: Bioluminescence of V. harveyi XK006 carrying luxN H210Q; settings: 1 μM AHL
T2 sequence (A7MRY4 1-849 H210Q): T1 sequence (A7MRY4 1-849 H210T) with T210Q

LuxN^G147D/Y194H = biological target: T3, LuxN^G147D/Y194H (Vibrio campbellii, UniProt A7MRY4, G147D/Y194H); assay: Bioluminescence of V. harveyi XK006 carrying luxN G147D/Y194H
T3 sequence (A7MRY4 1-849 G147D/Y194H): T1 sequence (A7MRY4 1-849 H210T) with G147D, Y194H, T210H

C[C@@H](O)CC(=O)N[C@H]1CCOC1=O [3OH-C4 HSL, N-((R)-3-hydroxybutanoyl)-L-homoserine lactone]
response (light production) (LuxN^H210T): modest response | induction of light production (LuxN^H210Q): 50 fold | response (dose-dependent light production) (LuxN^G147D/Y194H): most potent agonist | induction of light production (LuxN^G147D/Y194H; 20 nM AI-1): 30 fold
